Data on 8 compounds can be found in ChEMBL document CHEMBL1201862, “PubChem BioAssay data set” (2004).

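Five compound concentrations were applied to cells in 96-well plates for 48 hours; endpoints were derived by simple linear interpolation of the resulting dose-response curve. At the GI50, growth is halved.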 Activity calls are given as the source filed them. Rule as the data show it: active = GI50 up to about 1.1 µM and inactive = higher.

What all share (experiment): inhibition of tumour cell growth, NCI panel, 48 h
The subject of assay [1] is NCI-H226.
Assay [2] has as its system KM12.
In assay [3] the test system is TK-10.
The subject of assay [4] is T47D.
The test system of assay [5] is A549.
For assay [6], the system named is HT-29.
The test system of assay [7] is HL-60.
In assay [8] the test system is SF-295.
For assay [9], the system named is SNB-75.
Assay [10] concerns UO-31.
In assay [11] the test system is SF-539.
The subject of assay [12] is SN12C.
Assay [13] has as its system NCI-H23.
Assay [14] concerns OVCAR-8.
The subject of assay [15] is OVCAR-3.
Assay [16] concerns M14.
For assay [17], the system named is RXF 393.
The test system of assay [18] is SW-620.
Assay [19] relates to HOP-92.
Assay [20] concerns SR.

For `CC(=O)Nc1nc2c(=O)c3ccccc3sc2s1`, the GI50 was > 100 µM (inactive) in assay [1]; > 100 µM (inactive) in [2]; 87.3 µM (inactive) in assay [3]; > 100 µM (inactive) in assay [4]; > 100 µM (inactive) in assay [5]; > 100 µM (inactive) in assay [6]. The GI50 in [7], in assay [8], in [9], in [10], in [11] and in assay [12] was > 100 µM (inactive) each time. Moreover, the GI50 in assay [13], in [14], in assay [15], in assay [16] and in [17] was > 100 µM (inactive) throughout.
Take `CC(C)N1CC2CN(Cc3ccccc3)CC(C1)C2=O`: the GI50 in assay [1], in assay [2], in assay [3], in assay [5], in [6] and in assay [7] was > 100 µM (inactive) in each case. The GI50 in [8], in [9], in assay [10], in [11], in assay [18] and in [12] was > 100 µM (inactive) each time. Also, the GI50 in [19], in assay [13], in assay [14], in assay [15], in assay [20] and in [16] was > 100 µM (inactive) each time. Also, the GI50 in assay [17] was > 100 µM (inactive).
Regarding `CCc1ccc2c(c1)CC1(C2)Cc2cc3c(cc2C1)C(=O)CC3` (stereo unspecified), the GI50 in [1] was 19.7 µM (inactive); in [2], 10.5 µM (inactive); in [3] it was 38.6 µM (inactive); in [4], 12.1 µM (inactive); in assay [5] it was 24.2 µM (inactive); in [6], 6.31 µM (inactive). Also, the GI50 in [7] is 2.69 µM (inactive); in [8], 19.1 µM (inactive); in assay [10], 43.9 µM (inactive); in assay [11] it was 18 µM (inactive); in [12], 27 µM (inactive); in assay [19] it was 14.7 µM (inactive). The GI50 is 22.9 µM (inactive) in assay [13]; 21.9 µM (inactive) in assay [14]; 17.3 µM (inactive) in assay [15]; 25.9 µM (inactive) in [16]; 36.9 µM (inactive) in [17].
Turning to `OCCCNc1ccnc2cc(Cl)ccc12`, the GI50 was 61.9 µM (inactive) in assay [1]; > 100 µM (inactive) in [2]; 21 µM (inactive) in assay [3]; > 100 µM (inactive) in assay [5]; > 100 µM (inactive) in [6]; > 100 µM (inactive) in [7]. Further, the GI50 in [8] is > 100 µM (inactive); in [9], > 100 µM (inactive); in assay [10], 25.5 µM (inactive); in assay [11], > 100 µM (inactive); in [18], > 100 µM (inactive); in assay [12], > 100 µM (inactive). Also, the GI50 in assay [19], in assay [13], in assay [14], in assay [15], in assay [20] and in [16] was > 100 µM (inactive) in each case. In assay [17], the GI50 is > 100 µM (inactive).
Consider `C[C@@H]1[C@@H]2[C@@H](C=C3C4CCC5Cc6nc7c(nc6C[C@@]5(C)C4C[C@H](O)[C@]32CO)CC2CCC3C4=C[C@H]5O[C@@]6(OC(C)(CO)C[C@@H]6O)[C@H](C)[C@@]5(O)[C@]4(C)[C@@H](O)CC3[C@]2(C)C7)O[C@]12CCC(C)(C)O2` (stereo partly specified), for which the GI50 in [1] was 0.0225 µM (active); in [2], 0.057 µM (active); in [3] it was 0.473 µM (active); in [5], 0.0137 µM (active); in assay [6], 0.0625 µM (active); in assay [7] it was 0.00692 µM (active). In addition, the GI50 in assay [8] is 0.000508 µM (active); in [9], 0.00038 µM (active); in assay [10], 0.0575 µM (active); in assay [11], 0.000764 µM (active); in assay [18], 0.0225 µM (active); in assay [12], 0.904 µM (active). For the same compound, the GI50 in assay [19] was 0.00815 µM (active); in assay [13], 0.0328 µM (active); in assay [14], 0.425 µM (active); in [15] it was 0.388 µM (active); in assay [20] it was 0.00255 µM (active); in assay [16] it was 0.0182 µM (active). Besides, the GI50 in [17] is 0.00082 µM (active).
For `COc1cc2c(c(OC)c1O)-c1ccc(SC)c(=O)cc1C(NC(C)=O)CC2` (stereo unspecified), the GI50 in [1] was 0.532 µM (active); in assay [2], < 0.01 µM (active); in assay [3], 2.29 µM (inactive); in assay [5], 0.04 µM (active); in assay [6], 0.0119 µM (active); in [7], < 0.01 µM (active). In addition, the GI50 in [8] was 0.0184 µM (active); in assay [9] it was < 0.01 µM (active); in [10] it was 5.96 µM (inactive); in assay [11] it was < 0.01 µM (active); in assay [18] it was < 0.01 µM (active); in [12], 0.0518 µM (active). The GI50 in assay [19] is 0.0124 µM (active); in assay [13], 0.0167 µM (active); in assay [14], 0.0307 µM (active); in assay [15], < 0.01 µM (active); in [20] it was 0.0112 µM (active); in assay [16], 0.0249 µM (active). In [17], the GI50 was 0.0171 µM (active).
As for `O=c1[nH]c2ccccc2c2nc3ccccc3n12`, the GI50 in assay [2] is 22.4 µM (inactive); in [3], 6.75 µM (inactive); in assay [4] it was > 100 µM (inactive); in assay [5], 33.2 µM (inactive); in assay [6], 49.5 µM (inactive); in assay [7], > 100 µM (inactive). The GI50 in assay [8] is 62.4 µM (inactive); in assay [10] it was 8.49 µM (inactive); in assay [11], 24.4 µM (inactive); in assay [18], 61.2 µM (inactive); in assay [12], > 100 µM (inactive); in assay [19], 13.9 µM (inactive). Besides, the GI50 in assay [13] was 42.5 µM (inactive); in assay [14], > 100 µM (inactive); in [15], 54.5 µM (inactive); in [16] it was > 100 µM (inactive); in assay [17], 28.7 µM (inactive).
Take `CC(C)c1cccc(C(C)C)c1/N=C(/N)C#N`: the GI50 is > 100 µM (inactive) in assay [1]; > 56 µM (inactive) in assay [2]; > 100 µM (inactive) in [3]; > 44.2 µM (inactive) in assay [5]; > 58.6 µM (inactive) in assay [6]; 26.7 µM (inactive) in assay [7]. Besides, the GI50 in assay [8] is > 100 µM (inactive); in [9], > 100 µM (inactive); in assay [10], > 100 µM (inactive); in assay [11], 22.8 µM (inactive); in assay [18] it was 22.1 µM (inactive); in assay [12], > 100 µM (inactive). Further, the GI50 in assay [19] was > 41.5 µM (inactive); in [13] it was > 100 µM (inactive); in [14], > 100 µM (inactive); in assay [15] it was > 100 µM (inactive); in assay [20], 46.2 µM (inactive); in assay [16], > 100 µM (inactive). Further, the GI50 in assay [17] was 53.8 µM (inactive).
